Legend:
[1] = Eight-day toxicity studies in mice, lethality (i.p.); assay type: in vivo; details: for Total number of deaths: 8 days
Source text: Eight-day toxicity studies of IFT 1026 and Bromhexine in mice.

[2] = Long-term toxicity in rats: mortality, pathology and general state; details: rat, in vivo
Protocol: Long-term toxicity (16 weeks) of IFT 1026 is tested in comparison to the parent compound (Bromhexine).

[3] = Bromsulphtalein (BSP) clearance in rats treated with the lower dose; assay type: in vivo; details: 30 min after 50 mg/kg BSP i.v., lower dose of drug
Protocol: The possibility to use BSP for the diagnosis of lesions in liver parenchyma is well known. Bromsulphtalein (BSP) clearance was made according to Carpi and Parenti (Carpi, C. and M. A. Parenti, Il Farmaco, Ed. Pr. vol. 17, page 45, 1962). Thirty minutes after the i.v. administration of 50 mg/kg BSP to control rats, the mean plasma level of the dyestuff is 80±12 mcg/ml.
% of rate showing BSP plasma levels greater than 80 mcg/ml
(control values) and 160 mcg/ml (two-fold control values)

[4] = Long-term toxicity in rats (16 weeks): mean body weight; assay type: in vivo
Source text: Effect of daily oral administration of various doses of
IFT 1026 and Bromhexine on mean body weight of rats.

[5] = Long-term toxicity in rats: hematological parameters; assay type: in vivo, rat; details: daily oral Bromhexine 250 mg/kg, IFT 1026 350 mg/kg
Protocol: The hematological and biochemical values relating to the groups under treament with the above reported doses are shown in Tables Nos. 4 and 5. These values are virtually the same for both treated and control animals.
Effect of daily oral administration of Bromhexine 250 mg/kg
and IFT 1026 350 mg/kg on the hematological parameters in […]

[6] = system: Cough elicited by 15% citric acid spray; experiment: Antitussive activity in mice, citric acid spray cough; assay type: in vivo; details: Mus musculus, oral, 1 hour after administration, confidence limits P = 0.05
Protocol: (§1) (6) Antitussive effect in Guinea-pigs and mice
(§2) Cough is elicited by 15% citric acid spray in both species, according to the method by Harsany et al. (Boll. Chim. Farm. 112, 691, 1973). The effect was tested 1 hour after oral administration and 30 min. after intraperitoneal application of the antitussive agents on mice and Guinea-pigs respectively.
(§3) ED50 values of the drugs are computed by the method of Litchfield and Wilcoxon (Litchfield, J. T. Jr., and Wilcoxon F., J. Pharmacol. exp. Ther. 96,99--1949).

[7] = Long-term toxicity in rats: biochemical parameters; assay type: in vivo, rat; details: daily oral 250 mg/kg Bromhexine, 350 mg/kg IFT 1026
[8] = system: Cough elicited by 15% citric acid spray; experiment: Antitussive activity in Guinea-pigs, citric acid spray cough; assay type: in vivo; details: Cavia porcellus, ip, 0.5 h, intraperitoneal, 30 min. after application, confidence limits P = 0.05
Protocol: as §1, §2, §3

[9] = system: Pain induced by a chemical stimulus; experiment: Siegmund Test: pain induced by a chemical stimulus (acetic acid writhing); assay type: in vivo, mice; details: mouse, 300 mg/kg oral
Protocol: (§4) Two test methods are used for establishing the action of Bromhexine and IFT 1026 on noci-ceptive stimuli in mice.
(§5) (a) Pain induced by a chemical stimulus according to the method of Siegmund (Siegmund E., Cadmier, R., and Lu, G. Proc. Soc. exp. Biol. N.Y. 95, 729--1957). The mice distributed at random into groups of 10 animals, are deprived of solid food for the 18-hour period prior to the test. […] Thirty minutes after treatment the mice are injected i.p. with 0.1 ml/10 g of a 1.5% acetic acid solution. The writhing is recorded for a 20 min. period following this i.p. injection.

[10] = Long-term toxicity in rats: organ weights at necropsy; assay type: in vivo; details: fresh weight, daily oral 250 mg/kg Bromhexine, 350 mg/kg IFT 1026
Protocol: Effect of daily oral administration of 250 mg/kg Bromhexine and 350 mg/kg
organ weights of rats, expressed as grams of fresh weight.

noci-ceptive stimuli = experiment: Study of analgesic action on mice (both tests); assay type: in vivo; details: 300 mg/kg oral
Protocol: as §4, §5
(§6) (b) Pain induced by a physical stimulation according to the hot-plate test technique by Eddy and Leimbach (Eddy, N. B. and Leimbach, O., J. Pharmacol. exp.Ther. 107, 383--1953). The temperature of the plate was kept at 57° C. Groups of 12 mice are treated as described under (a) above. The reaction times are measured 15 min. before treatment (Ro) and 4 times after the administration (every 15 min). Only the maximal response is taken into account (Rmax).

[11] = system: Pain induced by a physical stimulation; experiment: Hot-plate Test (Eddy and Leimbach): pain induced by a physical stimulation; assay type: in vivo, mice; details: mouse, 300 mg/kg oral, plate at 57° C.
Protocol: as §4, §6

CN(Cc1cc(Br)cc(Br)c1N)C1CCCCC1 [Bromhexine, N-cyclohexyl-N-methyl-2-(2-amino-3,5-dibromo)benzylammonium chloride]
Number of deaths at day 3 ([1]; daily dose 300 mg/k): 1 | Number of deaths at day 6 ([1]; daily dose 300 mg/k): 1 | Total number of deaths ([1]; daily dose 300 mg/k): 2/10 | Number of deaths at day 3 ([1]; daily dose 600 mg/k): 1 | Number of deaths at day 5 ([1]; daily dose 600 mg/k): 1 | Number of deaths at day 6 ([1]; daily dose 600 mg/k): 1 | Number of deaths at day 7 ([1]; daily dose 600 mg/k): 1 | Number of deaths at day 8 ([1]; daily dose 600 mg/k): 1 | Total number of deaths ([1]; daily dose 600 mg/k): 5/10 | animals that died during the study [2]: Five | rats displaying liver steatosis [2]: Four | % showing BSP plasma levels >160 mcg/ml ([3]; X^2 = 0.43, N.S.): 12% | rats showing BSP plasma levels >160 mcg/ml, number/tested ([3]; X^2 = 0.43, N.S.): 2/17 | % showing BSP plasma levels >80 mcg/ml ([3]; X^2 = 0.7, N.S.): 41% | rats showing BSP plasma levels >80 mcg/ml, number/tested ([3]; X^2 = 0.7, N.S.): 7/17 | body weight, mean ± SE ([4]; females, 50 mg/kg daily oral, 0 days): 110 ± 5 g | body weight, mean ± SE ([4]; females, 50 mg/kg daily oral, 21 days): 174 ± 2 g | body weight, mean ± SE ([4]; females, 50 mg/kg daily oral, 45 days): 217 ± 4 g | body weight, mean ± SE ([4]; females, 50 mg/kg daily oral, 60 days): 229 ± 4 g | body weight, mean ± SE ([4]; females, 250 mg/kg daily oral, 0 days): 109 ± 6 g | body weight, mean ± SE ([4]; females, 250 mg/kg daily oral, 21 days): 158 ± 5 g | body weight, mean ± SE ([4]; females, 250 mg/kg daily oral, 45 days): 206 ± 4 g | body weight, mean ± SE ([4]; females, 250 mg/kg daily oral, 60 days): 230 ± 3 g | body weight, mean ± SE ([4]; females, 1000 mg/kg daily oral, 0 days): 117 ± 6 g | body weight, mean ± SE ([4]; females, 1000 mg/kg daily oral, 21 days): 147 ± 13 g | body weight, mean ± SE ([4]; females, 1000 mg/kg daily oral, 45 days): 157 ± 7 g | body weight, mean ± SE ([4]; females, 1000 mg/kg daily oral, 60 days): 188 ± 12 g | body weight, mean ± SE ([4]; males, 50 mg/kg daily oral, 0 days): 115 ± 9 g | body weight, mean ± SE ([4]; males, 50 mg/kg daily oral, 21 days): 225 ± 6 g | body weight, mean ± SE ([4]; males, 50 mg/kg daily oral, 45 days): 295 ± 7 g | body weight, mean ± SE ([4]; males, 50 mg/kg daily oral, 60 days): 365 ± 7 g | body weight, mean ± SE ([4]; males, 250 mg/kg daily oral, 0 days): 118 ± 12 g | body weight, mean ± SE ([4]; males, 250 mg/kg daily oral, 21 days): 218 ± 7 g | body weight, mean ± SE ([4]; males, 250 mg/kg daily oral, 45 days): 285 ± 8 g | body weight, mean ± SE ([4]; males, 250 mg/kg daily oral, 60 days): 355 ± 9 g | body weight, mean ± SE ([4]; males, 1000 mg/kg daily oral, 0 days): 110 ± 7 g | body weight, mean ± SE ([4]; males, 1000 mg/kg daily oral, 21 days): 180 ± 9 g | body weight, mean ± SE ([4]; males, 1000 mg/kg daily oral, 45 days): 250 ± 8 g | body weight, mean ± SE ([4]; males, 1000 mg/kg daily oral, 60 days): 290 ± 12 g | variations in the body weights versus control group ([4]; rats, exception: Bromhexine 1000 mg/kg/day): lower values than their control group | RBC, mean ± SE ([5]; females): 752 ± 37 10^6 /ml | WBC, mean ± SE ([5]; females): 132 ± 5 10^2 /ml | RBC, mean ± SE ([5]; males): 774 ± 63 10^6 /ml | WBC, mean ± SE ([5]; males): 168 ± 20 10^2 /ml | ED50 [6]: 194 mg/kg | A/G ratio (Albumin/Globulin), mean ± SE ([7]; females): 2.6 ± 0.1 | BUN, mean ± SE ([7]; females): 44.9 ± 4 mg % | GLUCOSE, mean ± SE ([7]; females): 77.1 ± 9 mg % | SGOT, mean ± SE ([7]; females): 24.1 ± 0.5 Units/ml | SGPT, mean ± SE ([7]; females): 12.6 ± 0.3 Units/ml | TOTAL PROTEIN, mean ± SE ([7]; females): 25.8 ± 1.1 mg/mL | A/G ratio (Albumin/Globulin), mean ± SE ([7]; males): 2.4 ± 0.2 | BUN, mean ± SE ([7]; males): 34.5 ± 3 mg % | GLUCOSE, mean ± SE ([7]; males): 88.5 ± 6 mg % | SGOT, mean ± SE ([7]; males): 24.8 ± 0.5 Units/ml | SGPT, mean ± SE ([7]; males): 12.7 ± 0.15 Units/ml | TOTAL PROTEIN, mean ± SE ([7]; males): 27.1 ± 2.5 mg/mL | ED50 [8]: 143 mg/kg | Siegmund Test, number of writhings for a 20 min. period, mean ± SE [9]: 32 ± 3 | organ weight, Adrenal glands ([10]; females): 4.7 ± 0.1 10^-2 grams | organ weight, Brain ([10]; females): 19.7 ± 0.5 10^-1 grams | organ weight, Heart ([10]; females): 8.3 ± 0.2 10^-1 grams | organ weight, Kidneys ([10]; females): 18.8 ± 0.9 10^-1 grams | organ weight, Liver ([10]; females): 10.5 ± 0.2 grams | organ weight, Lungs ([10]; females): 14.4 ± 0.9 10^-1 grams | organ weight, Spleen ([10]; females): 7.9 ± 0.2 10^-1 grams | organ weight, Adrenal glands ([10]; males): 3.8 ± 0.2 10^-2 grams | organ weight, Brain ([10]; males): 14 ± 1 10^-1 grams | organ weight, Heart ([10]; males): 8.8 ± 1.4 10^-1 grams | organ weight, Kidneys ([10]; males): 18.4 ± 0.5 10^-1 grams | organ weight, Liver ([10]; males): 10.6 ± 0.2 grams | organ weight, Lungs ([10]; males): 11.6 ± 1.7 10^-1 grams | organ weight, Spleen ([10]; males): 6 ± 0.6 10^-1 grams | Responses to algogenic stimuli (noci-ceptive stimuli): not suppressed | Hot-plate Test (R max/Ro), mean ± SE [11]: 1.5 ± 0.18

Source: patent publication US4191780A, “Bromhexine derivatives and process for making same” (priority 1978, dated 1980)
